# “Also recorded” adds a separate entry of the source.
# Legend:
# TLR7 = biological target: T1, TLR7 (Mus musculus, UniProt P58681); test: TLR7-mediated TNF-α secretion (imiquimod stimulation), ELISA; format: cell-based, murine
# T1 construct: endogenous in cells; host or cells: RAW 264.7
# T1 sequence (P58681 27-1050): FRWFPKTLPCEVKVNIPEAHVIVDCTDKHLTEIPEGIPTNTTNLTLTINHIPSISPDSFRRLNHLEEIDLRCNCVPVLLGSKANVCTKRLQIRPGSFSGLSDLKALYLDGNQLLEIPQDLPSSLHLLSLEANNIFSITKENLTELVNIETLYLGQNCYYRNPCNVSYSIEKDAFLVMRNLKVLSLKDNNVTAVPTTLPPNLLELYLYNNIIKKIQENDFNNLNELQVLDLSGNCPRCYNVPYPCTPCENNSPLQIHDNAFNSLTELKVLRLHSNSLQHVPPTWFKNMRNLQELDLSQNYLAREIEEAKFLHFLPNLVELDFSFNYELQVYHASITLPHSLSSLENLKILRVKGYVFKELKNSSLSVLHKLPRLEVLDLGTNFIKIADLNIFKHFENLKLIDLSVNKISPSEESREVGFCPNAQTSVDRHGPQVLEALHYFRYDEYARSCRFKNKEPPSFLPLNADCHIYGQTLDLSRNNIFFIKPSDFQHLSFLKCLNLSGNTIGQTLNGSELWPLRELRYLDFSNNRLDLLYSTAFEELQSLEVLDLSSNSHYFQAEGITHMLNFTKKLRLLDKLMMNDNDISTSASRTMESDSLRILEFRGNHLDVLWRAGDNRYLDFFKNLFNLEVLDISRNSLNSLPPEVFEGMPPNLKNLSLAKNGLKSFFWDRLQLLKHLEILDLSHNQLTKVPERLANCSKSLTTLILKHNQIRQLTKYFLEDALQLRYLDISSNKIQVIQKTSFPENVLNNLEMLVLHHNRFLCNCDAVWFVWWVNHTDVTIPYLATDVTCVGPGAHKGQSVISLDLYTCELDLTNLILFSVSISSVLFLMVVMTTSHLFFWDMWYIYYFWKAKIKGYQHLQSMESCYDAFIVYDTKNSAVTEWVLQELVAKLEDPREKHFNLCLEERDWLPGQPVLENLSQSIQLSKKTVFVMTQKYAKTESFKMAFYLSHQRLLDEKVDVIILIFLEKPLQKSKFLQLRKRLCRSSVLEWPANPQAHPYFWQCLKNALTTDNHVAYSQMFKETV
# Experimental: (§1) Agonists specific to TLR1/TLR2 (Pam3CSK4), TLR2/TLR6 (FSL-1), TLR3 (Poly I:C), TLR7 (imiquimod), and TLR8 (TL8-506) were purchased from InvivoGen Ltd. (Hong-Kong, China), and a TLR4-specific agonist (LPS from E. coli O111:B4) was purchased from Sigma-Aldrich, Inc. For TLR9-specific stimulation, class C CpG-ODN (ODN2395, 5′-TCGTCGTTTTCGGCGCGCGCCG-3′) having full phosphorothioate backbone modification was synthesized (Bioneer, Inc., Daejeon, Korea). All TLR agonists were dissolved in deionized water and applied to a culture media for TLR activation. The cells were treated with test compounds or a control medium for 1 hour, and then stimulated with a TLR agonist for 4 hours, or 24 hours in the case of poly(I:C), and the cytokine secretion was monitored.
# (§2) RAW 264.7 or differentiated THP-1 cell lines were seeded onto a 96-well culture plate at a density of 2×10^4 cells/well. The cells were treated with test compounds for 1 hour followed by the stimulation with TLR agonists for 4 hours. The supernatant was transferred to pre-coated assay plates, and the secretion levels of mouse and human TNF-α were measured by respective ELISA kits (Invitrogen, Carlsbad, CA, USA). All experiments were performed according to the manufacturer's instructions. Absorbance was measured by a microplate reader spectrophotometer (Molecular Devices, Inc., San Jose, CA, USA), and data was interpolated from a standard curve using SoftMax Pro 5.3 software (Molecular Devices, Inc.).
# In order to evaluate the antagonistic effect of each compound on TLR7/TLR9 through ELISA (enzyme-linked immunosorbent assay), RAW 264.7 cells were pretreated with the eight compounds followed by the stimulation with a TLR7-specific agonist (imiquimod, 3.61 μM) or with a TLR9-specific agonist (ODN2395, 0.5 μM). […] Since the two ligands had no agonistic effect per se (FIG. 3B), the increased cytokine production may be due to cell activation (or non-specific cellular stress) by co-treatment. Consequently, TIC10 was selected as the most suitable lead for further optimization to improve the inhibitory potency against both TLR7 and TLR9.
# TLR1/2 = biological target: T2, TLR1/2 (Mus musculus, UniProt Q9EPQ1+Q9QUN7); test: TLR1/2-mediated TNF-α secretion (Pam3CSK4), ELISA; format: cell-based, murine; conditions: RAW 264.7, 10 or 20 μM
# T2 construct: endogenous in cells; host or cells: RAW 264.7
# T2 sequence (Q9EPQ1 26-795): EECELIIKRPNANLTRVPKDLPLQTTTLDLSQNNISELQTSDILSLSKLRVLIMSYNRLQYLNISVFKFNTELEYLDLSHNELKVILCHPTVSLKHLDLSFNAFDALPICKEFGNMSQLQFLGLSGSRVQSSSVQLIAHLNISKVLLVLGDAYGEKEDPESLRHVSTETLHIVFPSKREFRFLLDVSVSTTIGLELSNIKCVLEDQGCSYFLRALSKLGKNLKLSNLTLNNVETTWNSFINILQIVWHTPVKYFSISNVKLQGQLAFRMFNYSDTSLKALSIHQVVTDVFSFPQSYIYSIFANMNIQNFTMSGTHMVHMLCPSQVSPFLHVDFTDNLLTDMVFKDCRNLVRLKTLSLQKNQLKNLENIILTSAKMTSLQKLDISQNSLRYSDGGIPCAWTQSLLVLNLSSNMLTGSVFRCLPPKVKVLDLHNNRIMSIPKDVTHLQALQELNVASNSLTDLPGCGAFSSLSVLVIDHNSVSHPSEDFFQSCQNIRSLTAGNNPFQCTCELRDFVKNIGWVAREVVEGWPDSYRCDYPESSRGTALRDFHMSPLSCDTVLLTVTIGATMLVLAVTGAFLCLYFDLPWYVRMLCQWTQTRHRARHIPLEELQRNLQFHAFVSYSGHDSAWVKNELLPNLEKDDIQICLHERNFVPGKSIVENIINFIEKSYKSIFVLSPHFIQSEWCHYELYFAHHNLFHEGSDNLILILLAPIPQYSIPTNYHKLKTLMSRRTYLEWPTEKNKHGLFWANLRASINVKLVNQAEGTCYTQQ
# T2 sequence (Q9QUN7 25-784): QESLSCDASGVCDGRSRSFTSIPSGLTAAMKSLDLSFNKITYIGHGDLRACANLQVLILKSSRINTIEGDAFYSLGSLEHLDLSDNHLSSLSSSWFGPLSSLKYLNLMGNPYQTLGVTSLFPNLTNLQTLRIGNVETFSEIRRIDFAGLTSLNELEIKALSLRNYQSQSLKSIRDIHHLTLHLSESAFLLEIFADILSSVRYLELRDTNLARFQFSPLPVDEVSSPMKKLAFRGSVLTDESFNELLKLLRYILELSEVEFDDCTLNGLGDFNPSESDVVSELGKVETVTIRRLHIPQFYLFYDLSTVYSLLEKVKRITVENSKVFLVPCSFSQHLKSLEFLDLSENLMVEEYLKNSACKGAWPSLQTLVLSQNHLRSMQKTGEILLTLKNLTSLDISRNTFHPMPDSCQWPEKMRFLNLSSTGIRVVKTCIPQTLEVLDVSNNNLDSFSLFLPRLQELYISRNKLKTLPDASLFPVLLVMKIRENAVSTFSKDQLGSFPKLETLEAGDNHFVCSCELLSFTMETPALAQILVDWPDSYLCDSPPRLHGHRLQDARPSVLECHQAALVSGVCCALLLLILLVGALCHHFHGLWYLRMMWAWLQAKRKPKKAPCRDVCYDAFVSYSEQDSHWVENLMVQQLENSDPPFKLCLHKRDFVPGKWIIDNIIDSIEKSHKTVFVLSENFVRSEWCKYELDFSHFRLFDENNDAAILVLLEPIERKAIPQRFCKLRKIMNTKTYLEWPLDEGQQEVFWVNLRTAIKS
# Experimental: as §1
# as §2, with “All experiments were performed according to the manufacturer's instructions.” left out, “Inc.). […]” for “Inc.).”
compound,measurement,setting,value
"COc1ccc(CNc2ncc(-c3ccc4c(c3)OCO4)n2C)c(OC)c1 [TIC10-7, 5-(2H-1,3-benzodioxol-5-yl)-N-[(2,4-dimethoxyphenyl)methyl]-1-methyl-1H-imidazol-2-amine]",TLR7-mediated TNF-α secretion,"TLR7; RAW 264.7, 10 or 20 μM, imiquimod (receptor specificity, FIG. 6)",moderately reduced
same,inhibitory efficacy on TLR7-mediated TNF-α secretion,"TLR7; RAW 264.7, 10 or 50 μM, imiquimod (FIG. 4B)",improved inhibitory efficacy compared to TIC10; also recorded: to a greater extent as compared to the other derivatives
same,IC50,"TLR7; RAW 264.7, imiquimod (FIG. 4D)",6.79 µM
same,effect on TLR1/2-mediated cytokine (TNF-α) production,TLR1/2,no effect
